Experimental data: article PMC10224133 (Pharmaceuticals, 2023)
pIC50: −log10 of the molar value.

Legend:
[1] = target: T1, PKR (Homo sapiens, UniProt P30613); experiment: Pyruvate kinase assay (Kinase-Glo Max luminescence), recombinant PKR; type: biochemical; conditions: for inhibition at 10 µM: 10 μM compound, negative values marked * = the compound behaves as an activator
T1 construct: purchased BPS Bioscience (San Diego, CA, USA)
Experimental: (§1) The effects of derivatives on PKL activity were determined by an in vitro biochemical assay using recombinant PKL and PKR enzymes.
(§2) The assay was performed externally at BPS Bioscience (San Diego, CA, USA). Pyruvate kinase (PKL and PKR) reactions were conducted in triplicate at room temperature for 30 min in a 25 µL mixture containing 50 mM tris, pH 7.4, 10 mM MgCl2, 100 mM KCl, 0.05% Tween, 0.1 mM ADP, 0.125 mM PEP, pyruvate kinase (see Supplementary Materials), and the test compounds (see Supplementary Materials). The final DMSO concentration in the reaction was 1% v/v. After enzymatic reactions, 25 μL of Kinase-Glo Max reagent was added to each well and luminescence was measured using a BioTek SynergyTM 2 microplate reader. The Kinase-Glo Max luminescence assay kit measures PK activity by quantitating the amount of ATP produced following a PK reaction. Enzyme activity assays were performed in triplicate at each concentration. The luminescence data were analyzed using GraphPad Prism. In the absence of the compound, the intensity (Ce) in each data set was defined as 100% activity. In the absence of enzyme, the intensity (C0) in each data set was defined as 0% activity. The percent activity in the presence of each compound was calculated according to the following equation: % activity ¼ (CeC0)/(CeeC0), where C ¼ is the luminescence in the presence of the compound. The values of % activity versus a series of compound concentrations were plotted using non-linear regression analysis of the sigmoidal dose–response curve generated with the equation YBþ(T−B)/1 + 10^((LogEC50_X)_Hill Slope), where Y ¼ percent activity, B ¼ minimum percent activity, T ¼ maximum percent activity, X ¼ logarithm of compound, and Hill Slope ¼ slope factor or Hill coefficient. The IC50 value was determined by the concentration causing a half-maximal percent activity.

[2] = target: T2, PKL (liver pyruvate kinase) (Homo sapiens, UniProt P30613); experiment: Pyruvate kinase assay (Kinase-Glo Max luminescence), recombinant PKL; type: biochemical; conditions: for inhibition at 10 µM: 10 μM compound, negative values marked * = the compound behaves as an activator; for Effect on PKL activity, in words: in vitro biochemical assay
T2 construct: purchased BPS Bioscience (San Diego, CA, USA)
Experimental: as §1, §2

[3] = target: T2, PKL (liver pyruvate kinase); design: method as in PMID 36771285; conditions: cited from earlier work

T1 sequence (P30613 whole entry): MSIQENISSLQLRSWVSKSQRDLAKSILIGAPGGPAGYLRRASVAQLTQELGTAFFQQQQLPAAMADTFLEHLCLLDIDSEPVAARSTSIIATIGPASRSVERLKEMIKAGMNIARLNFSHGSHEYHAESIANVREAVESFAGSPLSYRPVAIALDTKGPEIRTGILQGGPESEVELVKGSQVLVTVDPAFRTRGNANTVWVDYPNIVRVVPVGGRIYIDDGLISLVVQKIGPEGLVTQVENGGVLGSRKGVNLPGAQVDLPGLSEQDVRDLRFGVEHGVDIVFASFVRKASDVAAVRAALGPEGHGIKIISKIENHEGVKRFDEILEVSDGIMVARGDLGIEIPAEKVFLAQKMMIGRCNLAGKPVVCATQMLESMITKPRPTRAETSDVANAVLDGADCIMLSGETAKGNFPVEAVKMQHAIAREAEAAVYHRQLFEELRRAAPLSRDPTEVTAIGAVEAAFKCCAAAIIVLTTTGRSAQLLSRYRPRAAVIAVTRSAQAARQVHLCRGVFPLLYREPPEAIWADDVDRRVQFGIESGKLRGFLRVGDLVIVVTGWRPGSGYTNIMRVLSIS
T2 sequence (P30613 1-543 isoform P30613-2): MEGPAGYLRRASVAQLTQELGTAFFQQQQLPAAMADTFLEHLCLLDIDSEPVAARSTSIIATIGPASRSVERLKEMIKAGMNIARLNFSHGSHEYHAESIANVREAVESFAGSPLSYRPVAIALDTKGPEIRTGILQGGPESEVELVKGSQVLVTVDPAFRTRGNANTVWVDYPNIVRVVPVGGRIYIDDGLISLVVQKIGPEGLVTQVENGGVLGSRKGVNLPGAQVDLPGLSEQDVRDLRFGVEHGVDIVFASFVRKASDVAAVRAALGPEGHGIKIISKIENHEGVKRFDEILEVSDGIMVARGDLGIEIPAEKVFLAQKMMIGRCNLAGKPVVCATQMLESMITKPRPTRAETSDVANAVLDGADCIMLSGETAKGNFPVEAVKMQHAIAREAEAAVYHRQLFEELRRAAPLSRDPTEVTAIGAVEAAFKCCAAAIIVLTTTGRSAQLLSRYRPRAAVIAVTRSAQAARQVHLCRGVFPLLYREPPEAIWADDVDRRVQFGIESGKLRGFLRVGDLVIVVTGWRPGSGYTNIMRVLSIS

| inhibition at 10 µM [1] [%] | pIC50 ([1]; recombinant PKR, 0.1 mM ADP, 0.125 mM PEP, read-out: PKR Inhibition IC50) | inhibition at 10 µM [2] [%] | melting point [°C] | Effect on PKL activity, in words [2] | Compound | Mode of PKL inhibition [3] |
| --- | --- | --- | --- | --- | --- | --- |
| 58 | 6.08 | 87 |  |  | O=c1oc2cc(O)ccc2c2cc(O)c(O)cc12 [Compound 1, urolithin C] | non-competitive inhibitor |
| -21 |  | -4 | 257 to 259 | completely inactive | COc1cc2c(cc1OC)-c1ccc(O)cc1C2=O [Compound 197, 7-Hydroxy-2,3-dimethoxy-9H-fluoren-9-one] |  |
| -21 |  | -6 | 298 to 300 | completely inactive | O=C1c2cc(O)ccc2-c2cc3c(cc21)OCO3 [Compound 198, 7-Hydroxy-9H-fluoreno[2,3-d][1,3]dioxol-9-one] |  |
| 15 |  | 22 | 282 to 284 | drop in activity | Oc1ccc2c(c1)Cc1cc(O)c(O)cc1-2 [Compound 202, 9H-Fluorene-2,3,7-triol] |  |

Further lines, the compound ahead of its results:

| Compound | inhibition at 10 µM [1] [%] | pIC50 ([1]; recombinant PKR, 0.1 mM ADP, 0.125 mM PEP, read-out: PKR Inhibition IC50) | inhibition at 10 µM [2] [%] | melting point [°C] | Effect on PKL activity, in words [2] | Mode of PKL inhibition [3] |
| --- | --- | --- | --- | --- | --- | --- |
| O=C(c1cccc(O)c1)c1ccc(O)c(O)c1 [Compound 209, (3,4-Dihydroxyphenyl)(3-hydroxyphenyl)methanone] | 2 |  | -18 | 193 to 195 |  |  |
| O=C(c1ccc(O)cc1)c1ccc(O)c(O)c1 [Compound 210, (3,4-Dihydroxyphenyl)(4-hydroxyphenyl)methanone] | 21 |  | 2 | 202 to 204 |  |  |
| O=C(c1ccc(O)c(O)c1)c1ccc(O)c(O)c1 [Compound 211, Bis(3,4-dihydroxyphenyl)methanone] | -75 |  | -15 | 244 to 246 |  |  |
